≈ marks a conversion by molar mass, not a printed value.

Series [1] relates to Candida albicans. Put plainly: Antifungal activity against Candida albicans assessed as fungal growth inhibition by CLSI protocol based microbroth dilution method. Format: functional. (In general: In broth dilution the organism is exposed to a series of concentrations in liquid medium.)
Another series has as its system Candida parapsilosis. Put plainly: Antifungal activity against Candida parapsilosis ATCC 22019 assessed as fungal growth inhibition by CLSI protocol based microbroth dilution method. In kind it is functional. The settings on record: Lodderomyces parapsilosis.
The test system of series [2] is Candida albicans. Put plainly: Antifungal activity against Candida albicans ATCC 90023 assessed as fungal growth inhibition by CLSI protocol based microbroth dilution method. Format: functional.
The subject of a further series is Candida tropicalis. Put plainly: Antifungal activity against Candida tropicalis assessed as fungal growth inhibition by CLSI protocol based microbroth dilution method. Format: functional.
Series [3] is described as follows: Hemolytic activity in human RBC. The settings on record: human red blood cells (erythrocytes). Format: cell-based, Erythrocyte.
A further series relates to Aspergillus fumigatus. Description: Antifungal activity against Aspergillus fumigatus assessed as fungal growth inhibition by CLSI protocol based microbroth dilution method. Format: functional.

For the molecule `O=C(Cn1cnc2c(N3CCN(Cc4ccc(Cl)cc4)CC3)ncnc21)c1nccs1`, the MIC with Candida albicans [1] is 32 µg/mL (≈ 70.5 µM); in the series on Candida parapsilosis, 64 µg/mL (≈ 141 µM); in the series on Candida albicans [2], 128 µg/mL (≈ 282 µM); in the series with Candida tropicalis it was 4 µg/mL (≈ 8.81 µM); in the series on Aspergillus fumigatus, 64 µg/mL (≈ 141 µM). Moreover, the HC50 in series [3] was more than 256 µg/mL.

Regarding `Cc1ccc(CN2CCN(c3ncnc4c3ncn4CC(=O)c3nccs3)CC2)cc1`, the MIC in the series on Candida albicans [1] is 16 µg/mL (≈ 36.9 µM); with Candida parapsilosis it was 64 µg/mL (≈ 148 µM); in the series with Candida albicans [2], 128 µg/mL (≈ 295 µM); in the series with Candida tropicalis, 64 µg/mL (≈ 148 µM); in the series on Aspergillus fumigatus it was 64 µg/mL (≈ 148 µM). In addition, in series [3], the HC50 is more than 256 µg/mL.

As to `CCCCCCCCN1CCN(c2ncnc3c2ncn3CC(=O)c2nccs2)CC1`, the MIC in the series with Candida albicans [1] was determined as 2 µg/mL (≈ 4.53 µM); in the series on Candida parapsilosis, 16 µg/mL (≈ 36.2 µM); in the series on Candida albicans [2] it was 256 µg/mL (≈ 580 µM); with Candida tropicalis, 16 µg/mL (≈ 36.2 µM); with Aspergillus fumigatus it was 64 µg/mL (≈ 145 µM). The HC50 in series [3] was more than 256 µg/mL.

Regarding `CCCCCCCCCCCCN1CCN(c2ncnc3c2ncn3CC(=O)c2nccs2)CC1`, the MIC in the series on Candida albicans [1] worked out at 4 µg/mL (≈ 8.04 µM); with Candida parapsilosis, 8 µg/mL (≈ 16.1 µM); in the series on Candida albicans [2] it was 16 µg/mL (≈ 32.1 µM); in the series on Candida tropicalis, 8 µg/mL (≈ 16.1 µM); in the series on Aspergillus fumigatus, 16 µg/mL (≈ 32.1 µM). Further, the HC50 in series [3] was more than 256 µg/mL.

Regarding `O=C(Cn1cnc2c(N3CCN(Cc4ccc([N+](=O)[O-])cc4)CC3)ncnc21)c1nccs1`, the MIC in the series on Candida albicans [1] is 8 µg/mL (≈ 17.2 µM); in the series with Candida parapsilosis it was 64 µg/mL (≈ 138 µM); with Candida albicans [2], 128 µg/mL (≈ 276 µM); in the series with Candida tropicalis, 64 µg/mL (≈ 138 µM); in the series on Aspergillus fumigatus it was 32 µg/mL (≈ 68.9 µM). In addition, the HC50 in series [3] is more than 256 µg/mL.

As for `O=C(Cn1cnc2c(N3CCOCC3)ncnc21)c1nccs1`, the MIC in the series with Candida albicans [1] is 64 µg/mL (≈ 194 µM); in the series on Candida parapsilosis it was 2 µg/mL (≈ 6.05 µM); with Candida albicans [2], 2 µg/mL (≈ 6.05 µM); in the series with Candida tropicalis it was 32 µg/mL (≈ 96.9 µM); with Aspergillus fumigatus, 64 µg/mL (≈ 194 µM). Moreover, the 50% haemolytic concentration (HC50) in series [3] is more than 256 µg/mL.

As to `O=C(Cn1cnc2c(N3CCN(Cc4ccccc4F)CC3)ncnc21)c1nccs1`, the MIC was 256 µg/mL (≈ 585 µM) in the series with Candida albicans [1]; 256 µg/mL (≈ 585 µM) in the series with Candida parapsilosis; 2 µg/mL (≈ 4.57 µM) in the series with Candida albicans [2]; 256 µg/mL (≈ 585 µM) in the series with Candida tropicalis; 32 µg/mL (≈ 73.1 µM) in the series with Aspergillus fumigatus. The molecule also came in with an HC50 in series [3] of more than 256 µg/mL.

With `CC(C)N(C(=O)CN1CCN(c2ncnc3c2ncn3CC(=O)c2nccs2)CC1)C(C)C`, the MIC turned out to be 4 µg/mL (≈ 8.5 µM) in the series on Candida albicans [1]; 32 µg/mL (≈ 68 µM) in the series with Candida parapsilosis; 16 µg/mL (≈ 34 µM) in the series with Candida albicans [2]; 8 µg/mL (≈ 17 µM) with Candida tropicalis; 32 µg/mL (≈ 68 µM) with Aspergillus fumigatus. Also, the HC50 in series [3] was more than 256 µg/mL.

As to `O=C(Cn1cnc2c(N3CCN(CCO)CC3)ncnc21)c1nccs1`, the MIC is 1 µg/mL (≈ 2.68 µM) in the series with Candida albicans [1]; 128 µg/mL (≈ 343 µM) in the series on Candida parapsilosis; 256 µg/mL (≈ 686 µM) with Candida albicans [2]; 64 µg/mL (≈ 171 µM) with Candida tropicalis; 64 µg/mL (≈ 171 µM) with Aspergillus fumigatus. In addition, in series [3], the HC50 was more than 256 µg/mL.

As for `CCN1CCN(c2ncnc3c2ncn3CC(=O)c2nccs2)CC1`, the MIC with Candida albicans [1] was 32 µg/mL (≈ 89.5 µM); in the series with Candida parapsilosis it was 256 µg/mL (≈ 716 µM); in the series on Candida albicans [2] it was 16 µg/mL (≈ 44.8 µM); with Candida tropicalis, 16 µg/mL (≈ 44.8 µM); with Aspergillus fumigatus, 32 µg/mL (≈ 89.5 µM). Moreover, in series [3], the HC50 was more than 256 µg/mL.

With `C=CCN1CCN(c2ncnc3c2ncn3CC(=O)c2nccs2)CC1`, the MIC in the series with Candida albicans [1] was determined as 4 µg/mL (≈ 10.8 µM); in the series with Candida parapsilosis, 8 µg/mL (≈ 21.7 µM); with Candida albicans [2], 64 µg/mL (≈ 173 µM); with Candida tropicalis, 32 µg/mL (≈ 86.6 µM); in the series on Aspergillus fumigatus, 64 µg/mL (≈ 173 µM). In series [3], this molecule displayed an HC50 of more than 256 µg/mL.

Take `O=C(Cn1cnc2c(N3CCNCC3)ncnc21)c1nccs1`: the MIC in the series with Candida albicans [1] was 64 µg/mL (≈ 194 µM); in the series with Candida parapsilosis, 256 µg/mL (≈ 777 µM); in the series on Candida albicans [2] it was 32 µg/mL (≈ 97.1 µM); in the series with Candida tropicalis, 32 µg/mL (≈ 97.1 µM); in the series with Aspergillus fumigatus, 64 µg/mL (≈ 194 µM). The HC50 in series [3] is more than 256 µg/mL.

On to `CCOC(=O)CN1CCN(c2ncnc3c2ncn3C/C(=N/O)c2nccs2)CC1`, for which the MIC with Candida albicans [1] was determined as 4 µg/mL (≈ 9.29 µM); in the series on Candida parapsilosis, 64 µg/mL (≈ 149 µM); in the series on Candida albicans [2], 16 µg/mL (≈ 37.2 µM); with Candida tropicalis, 64 µg/mL (≈ 149 µM); with Aspergillus fumigatus, 16 µg/mL (≈ 37.2 µM). Also, the HC50 in series [3] is more than 256 µg/mL.

As to `O=C(Cn1cnc2c(N3CCN(CC(=O)N4CCCC4)CC3)ncnc21)c1nccs1`, the MIC was 2 µg/mL (≈ 4.54 µM) in the series on Candida albicans [1]; 128 µg/mL (≈ 291 µM) in the series with Candida parapsilosis; 256 µg/mL (≈ 581 µM) in the series on Candida albicans [2]; 32 µg/mL (≈ 72.6 µM) in the series on Candida tropicalis; 64 µg/mL (≈ 145 µM) in the series with Aspergillus fumigatus. In series [3], this molecule returned an HC50 of more than 256 µg/mL.

On to `CCOC(=O)CN1CCN(c2ncnc3c2ncn3CC(O)c2nccs2)CC1` (stereo unspecified), for which the MIC came out at 128 µg/mL (≈ 307 µM) in the series with Candida albicans [1]; 128 µg/mL (≈ 307 µM) with Candida parapsilosis; 64 µg/mL (≈ 153 µM) in the series with Candida albicans [2]; 64 µg/mL (≈ 153 µM) with Candida tropicalis; 32 µg/mL (≈ 76.6 µM) with Aspergillus fumigatus. In series [3], this molecule yielded an HC50 of more than 256 µg/mL.

Regarding `CCCCCCN1CCN(c2ncnc3c2ncn3CC(=O)c2nccs2)CC1`, the MIC in the series with Candida albicans [1] came to 4 µg/mL (≈ 9.67 µM); with Candida parapsilosis, 4 µg/mL (≈ 9.67 µM); in the series on Candida albicans [2], 16 µg/mL (≈ 38.7 µM); in the series on Candida tropicalis, 32 µg/mL (≈ 77.4 µM); in the series with Aspergillus fumigatus it was 128 µg/mL (≈ 310 µM). In series [3], this molecule displayed an HC50 of more than 256 µg/mL.

A word on the MIC: it is the lowest concentration that inhibits growth of the organism. The HC50 is the concentration that lyses half of the red blood cells. A low value points to more damage to red cells.

Source of the values: ChEMBL document CHEMBL4825682, “Discovery of novel purinylthiazolylethanone derivatives as anti-Candida albicans agents through possible multifaceted mechanisms” (Eur J Med Chem, 2021).
